Measured values: PMC4441536 (Journal of Medicinal Chemistry, 2015)
Values after ≈ are worked out from the molar mass of the structure shown. Values joined by “and” are separate entries in the source; they are usually repeats but may differ in a detail not shown here. Identical values can stand only once. Like-named read-outs stand apart in the source and are kept apart here.

Columns and labels:
CB1 (h) = CB1 (h) (Homo sapiens, UniProt P21554)
M3 (h) = M3 (h) (Homo sapiens, UniProt P20309)
5-HT1A (h) = 5-HT1A (h) (Homo sapiens, UniProt P08908)
5-HT1A (h), sequence (P08908 whole entry): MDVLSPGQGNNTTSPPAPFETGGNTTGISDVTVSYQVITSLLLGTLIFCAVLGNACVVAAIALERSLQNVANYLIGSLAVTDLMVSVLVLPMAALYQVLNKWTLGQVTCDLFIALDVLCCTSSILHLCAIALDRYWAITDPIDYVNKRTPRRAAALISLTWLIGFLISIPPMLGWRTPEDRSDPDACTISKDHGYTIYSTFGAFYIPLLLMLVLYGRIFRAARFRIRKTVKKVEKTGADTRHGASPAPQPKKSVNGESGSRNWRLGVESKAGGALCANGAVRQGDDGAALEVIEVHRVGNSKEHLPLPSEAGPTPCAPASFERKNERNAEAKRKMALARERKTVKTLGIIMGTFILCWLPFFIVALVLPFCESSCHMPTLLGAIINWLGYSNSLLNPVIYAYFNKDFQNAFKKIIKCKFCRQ

[1] = mouse, in vivo; for AUC / Cmax / Terminal Half-Life: 5 mg/kg
in vivo = conditions: mouse, 5 mg/kg; for half-life: Terminal Half-Life
physchem [2] = conditions: D2O
physchem [3] = assay: physchem
A3 (h) = A3 (h) (Homo sapiens, UniProt P0DMS8)
5-HT3 (h) = 5-HT3 (h) (Homo sapiens, UniProt P46098)
5-HT3 (h), sequence (P46098 24-478): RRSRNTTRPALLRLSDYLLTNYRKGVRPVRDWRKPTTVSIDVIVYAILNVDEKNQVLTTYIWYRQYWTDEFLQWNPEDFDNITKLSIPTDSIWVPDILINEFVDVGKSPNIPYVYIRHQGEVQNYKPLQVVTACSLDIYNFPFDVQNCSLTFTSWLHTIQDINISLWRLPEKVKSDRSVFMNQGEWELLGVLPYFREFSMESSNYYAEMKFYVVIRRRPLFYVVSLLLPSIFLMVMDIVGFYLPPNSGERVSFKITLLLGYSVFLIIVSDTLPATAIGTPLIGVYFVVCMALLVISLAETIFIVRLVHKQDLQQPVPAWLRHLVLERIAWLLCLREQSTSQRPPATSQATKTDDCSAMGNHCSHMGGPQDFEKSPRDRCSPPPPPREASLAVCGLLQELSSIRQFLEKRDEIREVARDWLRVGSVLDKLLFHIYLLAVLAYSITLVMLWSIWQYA

B2 (h) = B2 (h) (Homo sapiens, UniProt P30411)
B2 (h), sequence (P30411 whole entry): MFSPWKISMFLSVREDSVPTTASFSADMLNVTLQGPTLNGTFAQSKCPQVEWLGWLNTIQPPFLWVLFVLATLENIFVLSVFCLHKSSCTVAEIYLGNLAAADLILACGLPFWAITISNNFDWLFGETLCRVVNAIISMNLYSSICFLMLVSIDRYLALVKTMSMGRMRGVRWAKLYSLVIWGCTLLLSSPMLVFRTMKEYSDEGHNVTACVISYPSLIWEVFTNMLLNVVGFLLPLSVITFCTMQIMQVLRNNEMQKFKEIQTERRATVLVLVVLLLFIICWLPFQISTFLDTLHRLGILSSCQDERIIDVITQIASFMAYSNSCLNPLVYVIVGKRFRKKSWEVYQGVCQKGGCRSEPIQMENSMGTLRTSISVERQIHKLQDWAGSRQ

NK3 (h) = NK3 (h) (Homo sapiens, UniProt P29371)
NK3 (h), sequence (P29371 whole entry): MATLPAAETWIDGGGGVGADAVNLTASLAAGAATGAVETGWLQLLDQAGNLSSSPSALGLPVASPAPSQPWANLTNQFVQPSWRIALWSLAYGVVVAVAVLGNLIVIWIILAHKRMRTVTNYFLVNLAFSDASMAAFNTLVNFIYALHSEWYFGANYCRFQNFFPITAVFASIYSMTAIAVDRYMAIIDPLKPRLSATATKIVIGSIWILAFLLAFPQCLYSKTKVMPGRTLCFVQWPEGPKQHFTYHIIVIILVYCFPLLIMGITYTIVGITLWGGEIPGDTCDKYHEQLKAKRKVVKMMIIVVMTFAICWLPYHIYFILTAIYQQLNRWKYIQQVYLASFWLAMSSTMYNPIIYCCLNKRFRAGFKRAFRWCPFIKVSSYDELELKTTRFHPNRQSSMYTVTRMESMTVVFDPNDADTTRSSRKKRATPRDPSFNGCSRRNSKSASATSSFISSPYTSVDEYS

D1 (h) = D1 (h) (Homo sapiens, UniProt P21728)
D1 (h), sequence (P21728 whole entry): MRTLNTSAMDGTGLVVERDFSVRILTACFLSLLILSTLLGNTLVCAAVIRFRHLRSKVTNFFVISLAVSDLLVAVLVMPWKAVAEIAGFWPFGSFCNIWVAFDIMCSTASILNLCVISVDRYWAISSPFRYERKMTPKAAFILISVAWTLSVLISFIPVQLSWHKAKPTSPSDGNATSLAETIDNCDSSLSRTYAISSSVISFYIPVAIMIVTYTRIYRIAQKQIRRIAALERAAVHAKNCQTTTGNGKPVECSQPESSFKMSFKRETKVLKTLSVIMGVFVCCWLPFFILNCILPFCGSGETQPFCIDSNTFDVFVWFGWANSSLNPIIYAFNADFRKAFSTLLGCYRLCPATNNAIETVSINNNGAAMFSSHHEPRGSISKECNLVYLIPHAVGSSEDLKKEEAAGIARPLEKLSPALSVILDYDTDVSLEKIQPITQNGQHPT

NK2 (h) = NK2 (h) (Homo sapiens, UniProt P21452)
NK2 (h), sequence (P21452 whole entry): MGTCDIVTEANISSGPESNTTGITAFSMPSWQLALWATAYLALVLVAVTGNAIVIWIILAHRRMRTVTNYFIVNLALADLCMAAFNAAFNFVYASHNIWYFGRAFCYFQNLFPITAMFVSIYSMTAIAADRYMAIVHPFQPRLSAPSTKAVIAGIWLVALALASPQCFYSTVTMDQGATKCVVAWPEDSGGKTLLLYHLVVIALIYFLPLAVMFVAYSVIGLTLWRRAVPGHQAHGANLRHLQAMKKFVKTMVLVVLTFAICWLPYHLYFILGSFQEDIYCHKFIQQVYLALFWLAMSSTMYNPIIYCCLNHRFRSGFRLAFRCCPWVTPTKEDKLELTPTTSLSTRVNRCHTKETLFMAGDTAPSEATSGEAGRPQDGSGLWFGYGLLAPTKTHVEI

beta 1 (h) = beta 1 (h) (Homo sapiens, UniProt P08588)
H2 (h) = H2 (h) (Homo sapiens, UniProt P25021)
5-HT2A (h) = 5-HT2A (h) (Homo sapiens, UniProt P28223)
MT1 (ML1A) (h) = MT1 (ML1A) (h) (Homo sapiens, UniProt P48039)
MT1 (ML1A) (h), sequence (P48039 whole entry): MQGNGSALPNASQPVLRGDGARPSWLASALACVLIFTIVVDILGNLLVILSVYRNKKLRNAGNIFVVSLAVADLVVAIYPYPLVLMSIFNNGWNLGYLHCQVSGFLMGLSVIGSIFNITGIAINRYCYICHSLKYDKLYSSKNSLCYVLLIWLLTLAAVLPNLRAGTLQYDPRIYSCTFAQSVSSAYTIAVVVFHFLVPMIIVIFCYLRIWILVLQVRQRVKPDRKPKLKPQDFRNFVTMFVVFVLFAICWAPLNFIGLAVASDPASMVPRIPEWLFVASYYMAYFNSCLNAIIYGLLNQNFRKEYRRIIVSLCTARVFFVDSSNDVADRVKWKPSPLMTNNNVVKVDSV

M2 (h) = M2 (h) (Homo sapiens, UniProt P08172)
AT1 (h) = AT1 (h) (Homo sapiens, UniProt P30556)
AT1 (h), sequence (P30556 whole entry): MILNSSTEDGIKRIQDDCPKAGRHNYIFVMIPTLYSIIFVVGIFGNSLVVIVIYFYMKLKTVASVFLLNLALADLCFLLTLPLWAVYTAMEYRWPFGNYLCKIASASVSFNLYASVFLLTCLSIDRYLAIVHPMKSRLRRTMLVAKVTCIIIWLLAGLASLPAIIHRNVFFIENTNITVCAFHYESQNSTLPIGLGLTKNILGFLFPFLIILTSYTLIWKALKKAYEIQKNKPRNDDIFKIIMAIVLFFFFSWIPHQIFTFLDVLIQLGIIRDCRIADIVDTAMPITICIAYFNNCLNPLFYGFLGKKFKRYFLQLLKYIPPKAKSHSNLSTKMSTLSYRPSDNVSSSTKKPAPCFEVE

5-HT1B = 5-HT1B (Rattus norvegicus, UniProt P28564)
5-HT1B, sequence (P28564 whole entry): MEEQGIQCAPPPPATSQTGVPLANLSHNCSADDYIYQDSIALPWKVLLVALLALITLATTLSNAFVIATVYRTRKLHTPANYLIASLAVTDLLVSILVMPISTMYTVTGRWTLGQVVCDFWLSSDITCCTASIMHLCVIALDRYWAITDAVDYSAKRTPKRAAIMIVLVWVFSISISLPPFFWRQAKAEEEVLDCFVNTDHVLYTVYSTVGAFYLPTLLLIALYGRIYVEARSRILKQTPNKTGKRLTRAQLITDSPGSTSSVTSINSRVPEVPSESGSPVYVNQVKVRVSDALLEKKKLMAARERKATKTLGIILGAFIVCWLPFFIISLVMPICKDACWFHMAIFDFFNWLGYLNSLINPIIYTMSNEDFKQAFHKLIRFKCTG

5-HT5a (h) = 5-HT5a (h) (Homo sapiens, UniProt P47898)
5-HT5a (h), sequence (P47898 whole entry): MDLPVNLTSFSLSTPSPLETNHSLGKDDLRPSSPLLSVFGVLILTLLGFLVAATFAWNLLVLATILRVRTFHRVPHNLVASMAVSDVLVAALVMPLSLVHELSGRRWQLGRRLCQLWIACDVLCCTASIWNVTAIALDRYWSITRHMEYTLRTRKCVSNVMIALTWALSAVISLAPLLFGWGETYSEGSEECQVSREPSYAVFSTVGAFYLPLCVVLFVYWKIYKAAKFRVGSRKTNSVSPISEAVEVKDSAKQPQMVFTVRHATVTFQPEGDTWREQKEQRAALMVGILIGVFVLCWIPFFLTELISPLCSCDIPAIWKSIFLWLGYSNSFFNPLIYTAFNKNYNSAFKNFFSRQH

5-HT6 (h) = 5-HT6 (h) (Homo sapiens, UniProt P50406)
5-HT6 (h), sequence (P50406 whole entry): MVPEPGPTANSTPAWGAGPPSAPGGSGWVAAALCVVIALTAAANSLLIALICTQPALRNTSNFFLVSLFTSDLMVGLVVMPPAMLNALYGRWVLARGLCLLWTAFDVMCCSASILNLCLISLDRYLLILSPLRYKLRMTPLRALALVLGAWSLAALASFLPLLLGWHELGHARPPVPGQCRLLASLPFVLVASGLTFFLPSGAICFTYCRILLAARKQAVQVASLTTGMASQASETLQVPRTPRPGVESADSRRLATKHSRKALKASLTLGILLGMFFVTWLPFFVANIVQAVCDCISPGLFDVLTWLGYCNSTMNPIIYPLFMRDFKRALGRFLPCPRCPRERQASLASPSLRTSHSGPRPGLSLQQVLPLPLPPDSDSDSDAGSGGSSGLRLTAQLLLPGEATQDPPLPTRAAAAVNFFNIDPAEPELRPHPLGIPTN

5-HT7 (h) = 5-HT7 (h) (Homo sapiens, UniProt P34969)
D2S (h) = D2S (h) (Homo sapiens, UniProt P14416)
[4] = iv, IV 5 mg/kg, individual animals 2, 3, 4
[5] = po, PO 5 mg/kg, individual animals 6, 7, 8

CB1 (h), sequence (P21554 whole entry): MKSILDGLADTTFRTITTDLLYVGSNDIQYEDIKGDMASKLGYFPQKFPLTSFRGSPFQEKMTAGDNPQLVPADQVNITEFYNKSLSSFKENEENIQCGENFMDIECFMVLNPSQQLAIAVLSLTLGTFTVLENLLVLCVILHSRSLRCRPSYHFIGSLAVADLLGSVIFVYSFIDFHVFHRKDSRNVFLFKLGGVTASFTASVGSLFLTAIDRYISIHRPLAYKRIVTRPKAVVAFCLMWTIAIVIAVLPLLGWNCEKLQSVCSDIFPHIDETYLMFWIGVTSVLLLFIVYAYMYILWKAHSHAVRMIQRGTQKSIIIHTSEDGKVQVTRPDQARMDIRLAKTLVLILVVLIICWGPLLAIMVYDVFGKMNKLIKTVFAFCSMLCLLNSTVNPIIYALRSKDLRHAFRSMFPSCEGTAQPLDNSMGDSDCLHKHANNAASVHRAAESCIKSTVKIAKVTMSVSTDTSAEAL

CCCCCCC(C)(C)c1ccc([C@@H]2C[C@H](O)CC[C@H]2CCCO)c(O)c1 [CP 55940]
nH Ref (CB1 (h)): 0.8

C[N+]1(C)CCC(OC(=O)C(c2ccccc2)c2ccccc2)CC1.[I-] [Compound 4-DAMP, 4-DAMP]
nH Ref (M3 (h)): 1.3

CCCN(CCC)C1CCc2cccc(O)c2C1 (centres unmarked) [Compound 8-OH-DPAT, 8-OH-DPAT]
nH Ref (5-HT1A (h)): 1.2

Cn1cc(CCn2cnc(-c3cnn(C)c3)c2-c2ccc(C#N)cc2)cn1 [Compound 13, 4-(4-(1-methyl-1H-pyrazol-4-yl)-1-(2-(1-methyl-1H-pyrazol-4-yl)ethyl)-1H-imidazol-5-yl)benzonitrile]
volume of distribution [1]: moderate | AUC ([1]; iv): 5.875 µM·h and 7.614 µM·h | Cmax ([1]; iv): 10.4 µM and 13.8 µM | Terminal Half-Life ([1]; iv): 59.8 min and 56.6 min | AUC ([1]; po): 5.161 µM·h and 4.542 µM·h | Cmax ([1]; po): 6.12 µM and 4.88 µM | Terminal Half-Life ([1]; po): 68.4 min and 49.3 min | Cmax (in vivo; [4]): 9.53 µM | half-life (in vivo; [4]): 50.9 min | Tmax (in vivo; iv, Tmax, IV 5 mg/kg, individual animals 2, 3, 4): 4.98 min | bioavailability (in vivo; po): 70% | Cmax (in vivo; [5]): 6.46 µM | half-life (in vivo; [5]): 45.4 min | solubility at 24 h (physchem [2]): 25 mM (≈ 8940 µg/mL) | logD (physchem [3]): 1.05

CNC(=O)[C@H]1O[C@@H](n2cnc3c(NCc4cccc(I)c4)ncnc32)[C@H](O)[C@@H]1O [IB-MECA]
nH Ref (A3 (h)): 0.7

CN1[C@@H]2CC[C@H]1C[C@@H](OC(=O)c1cc(Cl)cc(Cl)c1)C2 [MDL 72222]
nH Ref (5-HT3 (h)): 1.1

N=C(N)NCCC[C@@H](N)C(=O)N[C@@H](CCCNC(=N)N)C(=O)N1CCC[C@H]1C(=O)N1C[C@H](O)C[C@H]1C(=O)NCC(=O)N[C@@H](Cc1ccccc1)C(=O)N[C@@H](CO)C(=O)N[C@H](Cc1ccccc1)C(=O)N[C@@H](Cc1ccccc1)C(=O)N[C@@H](CCCNC(=N)N)C(=O)O [NPC 567]
nH Ref (B2 (h)): 0.8

CC[C@H](NC(=O)c1c(C)c(-c2ccccc2)nc2ccccc12)c1ccccc1 [SB 222200]
nH Ref (NK3 (h)): 1.0

CN1CCc2cc(Cl)c(O)cc2[C@@H](c2ccccc2)C1 [SCH 23390]
nH Ref (D1 (h)): 0.9

CCCC[C@H](NC(=O)[C@H](CC(C)C)NC(=O)CNC(=O)[C@@H](NC(=O)[C@H](Cc1ccccc1)NC(=O)[C@H](CO)NC(=O)[C@@H](N)CC(=O)O)C(C)C)C(N)=O [[Nleu10]-NKA (4-10)]
nH Ref (NK2 (h)): 0.9

CC(C)NCC(O)COc1ccc(CC(N)=O)cc1 (centres unmarked) [atenolol]
nH Ref (beta 1 (h)): 0.9

CN/C(=N/CCSCc1nc[nH]c1C)NC#N [cimetidine]
nH Ref (H2 (h)): 0.9

O=C(c1ccc(F)cc1)C1CCN(CCn2c(=O)[nH]c3ccccc3c2=O)CC1 [ketanserin]
nH Ref (5-HT2A (h)): 1.2

COc1ccc2[nH]cc(CCNC(C)=O)c2c1 [melatonin]
nH Ref (MT1 (ML1A) (h)): 1.3

COc1ccccc1CNCCCCCCNCCCCCCCCNCCCCCCNCc1ccccc1OC [methoctramine]
nH Ref (M2 (h)): 0.8

CNCC(=O)N[C@@H](CCCN=C(N)N)C(=O)N[C@H](C(=O)N[C@@H](Cc1ccc(O)cc1)C(=O)N[C@H](C(=O)N[C@@H](Cc1cnc[nH]1)C(=O)N1CCC[C@H]1C(=O)N[C@@H](C)C(=O)O)C(C)C)C(C)C [saralasin]
nH Ref (AT1 (h)): 0.9

NCCc1c[nH]c2ccc(O)cc12 [serotonin]
nH Ref (5-HT1B): 1.2 | nH Ref (5-HT5a (h)): 0.7 | nH Ref (5-HT6 (h)): 0.8 | nH Ref (5-HT7 (h)): 0.6

(+)butaclamol
nH Ref (D2S (h)): 1.3
